In patent US7368431B2, “Polypeptide, the conjugate thereof with doxorubicine and a pharmaceutical composition based thereon” (Zakrytoe Aktsionernoe Obschestvo “Russkie Biotechnologll”, priority 2001, dated 2008):
Peptide text beside a SMILES is read from it. * marks the point of attachment. X1 = COc1cccc2c1C(=O)c1c(O)c3c(c(O)c1C2=O)C[C@@](O)(C(=O)CO)C[C@@H]3O[C@H]1C[C@H](N=CCCCC=N[C@@H](CCSC)C(=O)*)[C@H](O)[C@H](C)O1

Legend:
[1] = test system: subcutaneously implanted line B16 cancer cells; assay: Murine implanted tumor model, intravenous administration; type: in vivo; details: mice, s.c. B16, i.v. 0.2 mg/kg of doxorubicin once every four days; for Increase in ADL, %: three injections, relative to controls
Method: The medicines were administered at a dose of 0.2 mg/kg of doxorubicin once every four days, three injections in total, starting from day 3 after the cancer implantation.

[2] = test system: murine melanoma cell line B16; assay: Cytotoxicity, MTT cell survival; type: cell-based; details: B16, 72 hours
Method: (§1) Efficacy of the conjugate was studied on the following cell lines: human breast carcinoma cell line MCF-7^wt and resistant human breast carcinoma cell line MCF-7^AdrR; human ovary carcinoma cell line SKOV3 and resistant human ovary carcinoma cell line SKVLB; and murine melanoma cell line B16.
(§2) Study protocol was common for all test runs. The cells cultivated in plastic flasks (COSTAR) in the RPMI medium (SIGMA), which contained 10% of fetal bovine serum (SIGMA), 100 U/ml of penicillin and 100 μg/ml of streptomycin, in a wet environment of 5% CO2 at 37° C., were inoculated in 96-well plates (Costar), 10000 in each well, and studied drugs were then added at different concentrations. After that, the cells were incubated for 72 hours. Two-four hours prior to the end of the incubation period, 50 μl (1 mg/ml) of the MTT solution (3-[4,5-dimethylthiazole-2yl]-2,5-diphenyltetrazole bromide (SIGMA) in the culture medium were added in each well. After the development of coloration, the medium was removed, formazan crystals were dissolved in 150 μl of dimethyl sulfoxide, and the absorbance was measured by spectrophotometry at 540 nm. Survival rates of the cells exposed to free and conjugated DR were determined in percent relative to the survival rate of controls taken as 100%.

[3] = test system: human breast carcinoma cell line MCF-7^wt; assay: Cytotoxicity, MTT cell survival; type: cell-based; details: 72 hours
Method: as §1, §2

[4] = test system: human ovary carcinoma cell line SKOV3; assay: Cytotoxicity, MTT cell survival; type: cell-based
Method: as §1, §2

[5] = test system: resistant human ovary carcinoma cell line SKVLB; assay: Cytotoxicity, MTT cell survival; type: cell-based; details: SKVLB^AdrR, 72 hours
Method: as §1, §2

[6] = test system: resistant human breast carcinoma cell line MCF-7^AdrR; assay: Cytotoxicity, MTT cell survival; type: cell-based; details: 72 hours
Method: as §1, §2

[7] = test system: line NIH 3T3 murine fibroblast cells; assay: Proliferative activity, 3H-thymidine incorporation; type: cell-based; details: NIH 3T3 fibroblasts, 0.1-1000 ng/ml, compared with known polypeptide I (EGF fragment), FIG. 1
Method: Proliferative activity of the polypeptide was tested on line NIH 3T3 murine fibroplat cells. The rate of DNA biosynthesis was judged from the amount of ^3H-timidine incorporated in the […] cell fraction. Line NIH 3T3 murine fibroblast cells were cultivated in plastic flasks in the RPM1 medium (SIGMA), which contained 10% of fetal bovine serum (SIGMA), 100 U/mb of penicillin and 100 μg/ml of streptomycin, in a wet environment of 5% CO2 at 37° C. Proliferation of synchronized line NIH 3T3 fibroblasts was induced by adding to the cellular suspension the proposed polypeptide at a different concentration (0.1-1000 ng/ml). The fibroblasts were cultivated in 96-well plates in the complete medium, 200-800 cells in each well containing 200 μl of the medium. ^3H-thymidine (1 μCi/well, […]) was added 2 hours prior to the end of the incubation period. Radioactivity was measured by a scintillation counter (RACKBETA, LKB) with the use of a toluene-based scintillation fluid ZhS-8. The rate of DNA biosynthesis was expressed as the stimulation index (stimulated-to-control cell ratio) calculated by the formula: I=N/No×100%, where I is the stimulation index, N is the number of EGF-stimulated cells, and No is the number of control cells. […]

[8] = Homo sapiens, Breast carcinoma cell

COc1cccc2c1C(=O)c1c(O)c3c(c(O)c1C2=O)C[C@@](O)(C(=O)CO)C[C@@H]3O[C@H]1C[C@H](N)[C@H](O)[C@H](C)O1 [DR, doxorubicin]
ADL (average duration of life) ([1]; three injections from day 3): 23.6 ± 4.0 days | Increase in ADL, % [1]: −24.8% | IC50 ([2]; Mus musculus): 35 nM | IC50 [3, 8]: 58.6 nM | IC50 ([4]; Homo sapiens, SK-OV-3, SKOV3, 72 hours): 209 nM | IC50 ([5]; Homo sapiens): 2010 nM | IC50 [6, 8]: 3700 nM

CC[C@H](C)[C@H](NC(=O)[C@H](Cc1ccc(O)cc1)NC(=O)[C@H](CCSC)N=CCCCC=N[C@H]1C[C@H](O[C@H]2C[C@](O)(C(=O)CO)Cc3c(O)c4c(c(O)c32)C(=O)c2c(OC)cccc2C4=O)O[C@@H](C)[C@H]1O)C(=O)N[C@@H](CCC(=O)O)C(=O)N[C@@H](C)C(=O)N[C@@H](CC(C)C)C(=O)N[C@@H](CC(=O)O)C(=O)N[C@@H](CO)C(=O)N[C@@H](Cc1ccc(O)cc1)C(=O)N[C@@H](C)C(=O)N[C@@H](CS)C(=O)O [Polypeptide-DR conjugate] (X1-YIEALDSYAC-OH)
ADL (average duration of life) ([1]; three injections from day 3): 46.6 ± 5.7 days | onset of tumors and their growth ([1]; three injections from day 3, compared with free DR): considerable delay in the onset of tumors and slowed their growth | Increase in ADL, % ([1]; listed as Conjugate, 0.2 mg/kg): 48.5% | Increase in ADL, % ([1]; listed as conjugate, 0.2 mg/kg): 46% | IC50 [2]: 1.1 nM | IC50 [3]: 1.3 nM | IC50 ([4]; SKOV3, 72 hours): 22 nM | IC50 [5]: 70 nM | IC50 [6]: 150 nM

NH2-Met-Tyr-Ile-Glu-Ala-Leu-Asp-Ser-Tyr-Ala-Cys-COOH (H-MYIEALDSYAC-OH) [proposed polypeptide, synthetic polypeptide H2N-…-COOH similar to EGF fragment 21 to 31, Lys replaced with Ser]
proliferative effect (incorporated 3H-thymidine, stimulation index) [7]: more pronounced dose-dependent proliferative effect
